According to publication PMC7568253, “Evaluation of two xenobiotic reductases from Pseudomonas putida for their suitability for magnetic nanoparticle‐directed enzyme prodrug therapy as a novel approach to cancer treatment” (MicrobiologyOpen, 2020):

Target: T1, XenA-his (Pseudomonas putida, UniProt Q9R9V9)
T1 construct: about 39 kDa, described as monomeric flavoprotein
T1 sequence (Q9R9V9 1-363): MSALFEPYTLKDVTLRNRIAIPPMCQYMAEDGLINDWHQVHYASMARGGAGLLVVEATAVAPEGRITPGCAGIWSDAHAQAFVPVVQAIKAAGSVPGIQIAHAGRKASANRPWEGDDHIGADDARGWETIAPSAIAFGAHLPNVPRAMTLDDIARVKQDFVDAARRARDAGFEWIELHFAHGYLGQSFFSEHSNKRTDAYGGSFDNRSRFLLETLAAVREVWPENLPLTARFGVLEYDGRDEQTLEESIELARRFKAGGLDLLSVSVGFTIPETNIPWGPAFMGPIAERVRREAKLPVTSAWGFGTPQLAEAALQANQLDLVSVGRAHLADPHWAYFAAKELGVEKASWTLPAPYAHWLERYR
Experiment: reduction of nitro groups tested with purified enzyme
Type: biochemical

O=[N+]([O-])OCC(CO[N+](=O)[O-])O[N+](=O)[O-] [nitro-glycerin]
reduction of nitro groups tested with purified enzyme: it was able to reduce the NO2 groups present in the substrate
